Earlier results as cited in US11046725B2, “Galactoside inhibitor of galectins” (GALECTO BIOTECH AB, priority 2018, dated 2021).

Biological target: Galectin-1 (Homo sapiens (Human), UniProt P09382)
Conditions: T. Delaine, 2016; read-out: affinity to Galectin-1; cited from earlier work

Sequence of Galectin-1 (P09382 whole entry, species assumed): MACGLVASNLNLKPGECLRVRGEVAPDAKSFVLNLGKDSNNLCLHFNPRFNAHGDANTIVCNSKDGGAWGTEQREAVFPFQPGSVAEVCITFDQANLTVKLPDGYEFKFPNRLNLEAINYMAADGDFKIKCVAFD

In the case of `OCC1O[C@@H](SC2O[C@H](CO)C(O)C(n3cc(-c4ccsc4)nn3)[C@H]2O)C(O)C(n2cc(-c3ccsc3)nn2)[C@H]1O` (stereo partly shown), the Kd is listed as < 10 nM.
